# Test results taken from patent US20150368220A1, “PHARMACEUTICAL COMPOSITION FOR TREATING OR PREVENTING STRESS URINARY INCONTINENCE OR MIXED URINARY INCONTINENCE, AND METHOD FOR SCREENING COMPOUND COMPRISED IN SAID PHARMACEUTICAL COMPOSITION” (Astellas Pharma Inc., priority 2012, published 2015).
# How the values were obtained:
# isolated bladder = assay: Isolated bladder contraction (Example 6); conditions: isolated bladder of SD female rat, cumulative addition
# Excerpt: (§1) (1) The bladder and uterus were isolated from an SD female rat having a body weight of 100 g to 500 g. For the isolated bladder, the parts below the parietal region and the triangular portion were resected to make only the body portion into a ring state, and further, one side of the tissue in the ring state was cut to a band-shaped tissue. The bladder in the band shape was isolated parallel to the median axis of the bladder to prepare strip-shaped specimens having a length of about 10 mm and a width of about 3 mm. The specimens were suspended in a 10 mL tissue bus filled with a Krebs-Henseleit solution (pH 7.4) at a resting tension of 0.5 g and the isometric contraction was recorded. For the isolated uterus, the edge portion of the uterus was cut and incised vertically, whereby a strip-shaped specimen having a width of about 6 mm was then prepared. The specimens were suspended in a 10 mL tissue bus filled with a Krebs—Henseleit solution (pH 7.4) at a resting tension of 0.5 g and the isometric contraction was recorded. […] For the bladder specimen, after the resting tension was stabilized, a 60 mM KCl solution or a 10 μM carbachol solution was added thereto to cause contraction. The specimens were washed and stabilized, and then the compounds were cumulatively administered.
# isolated urethra = assay: Urethra contracting action using isolated urethra (Example 3); conditions: isolated urethra of SD female rat, cumulative 10^-5 M to 10^-12 M, FIGS. 6 and 7
# Protocol: The urethra was isolated from an SD female rat having a body weight of 100 g to 500 g. The isolated urethra was incised vertically and then made into strip-shaped specimens having a width of about 3 mm. The specimens were suspended in a 10 mL tissue bus filled with a Krebs—Henseleit solution (pH 7.4) in the circular muscle direction. The Krebs—Henseleit solution was aerated at 95% O2 and 5% CO2, and warmed at 37° C. The resting tension was set to 0.5 g and the isometric contraction was recorded. After the resting tension was stabilized, a 10 μM phenylephrine solution was added thereto to cause contraction.
# SD female rat [1] = assay: Effect on rat blood pressure (Example 6); assay type: in vivo; conditions: intravenous, at a dose for increasing the urethral pressure, FIGS. 21 and 22
# Excerpt: An SD female rat was anesthetized with urethane and allowed to undergo laparotomy, and then a catheter was mounted in the bladder dome for urine leakage in the bladder. Further, a catheter was mounted in the femoral vein for the administration of a compound and a catheter was mounted in the carotid artery for the measurement of blood pressure described in Example 6 as described later. A microchip transducer catheter (Milar Instruments) was inserted toward the bladder from the external urethral meatus for the measurement of the urethral pressure, and fixed such that the transducer portion was positioned around the portion at which the urethral pressure was maximized (10.0 mm to 15.0 mm from the external urethral meatus). The catheter mounted in the carotid artery was attached to a pressure transducer and the blood pressure was measured.
# (2) In the experiment for measuring the urethral pressure in Example 4, the blood pressure was measured simultaneously. After the urethral pressure and the blood pressure were stabilized, the compound was administered and a change in the blood pressure was measured.
# SD female rat [2] = assay: Effect on urethral pressure, microchip method (Example 4); assay type: in vivo; conditions: intravenous, anesthetized SD female rat, FIGS. 8 and 9
# Excerpt: An SD female rat was anesthetized with urethane and allowed to undergo laparotomy, and then a catheter was mounted in the bladder dome for urine leakage in the bladder. Further, a catheter was mounted in the femoral vein for the administration of a compound and a catheter was mounted in the carotid artery for the measurement of blood pressure described in Example 6 as described later. […] The catheter mounted in the carotid artery was attached to a pressure transducer and the blood pressure was measured.
# isolated uterus = assay: Isolated uterus contraction (Example 6); conditions: isolated uterus of SD female rat; for contraction action on the isolated uterus: cumulative 10^-5 M to 10^-11 M
# Excerpt: as §1
# SD female rat [3] = assay: Effect on urethral pressure, perfusion method (Example 4); assay type: in vivo; conditions: intravenous, anesthetized SD female rat, FIGS. 10 to 14
# Protocol: An SD female rat was anesthetized with urethane and allowed to undergo laparotomy, the bladder dome was then incised, and a catheter having a barb at the tip was inserted toward the urethra from the bladder, and ligated and fixed such that the tip of the catheter was positioned around the proximal urethra. Physiological saline was injected at a predetermined flow rate into the urethra through the catheter and the urethral pressure was measured with a pressure transducer. After the urethral pressure was stabilized, compounds dissolved in physiological saline, or physiological saline containing 5% N,N-dimethylacetamide(DMA) and 0.5% Cremophor were intravenously administered at a dose of 1 μg/kg, 10 μg/kg, 100 μg/kg, or 1000 μg/kg and a change in the urethral pressure was measured.
# human MT1 receptor = biological target: T1, human MT1 receptor (Homo sapiens, UniProt P48039); assay: Intracellular Ca2+ concentration by FLIPR in human MT1 receptor expressing cells (Example 2); assay type: cell-based; conditions: human MT1 receptor expressing HEK293 cells, 10^-5 M to 10^-12 M, FIGS. 2 and 4
# T1 construct: expressed in transfected cells; vector pCDNA3.1/Zeo; co-transfected with a Gq/i chimeric G protein expression vector
# T1 sequence (P48039 whole entry): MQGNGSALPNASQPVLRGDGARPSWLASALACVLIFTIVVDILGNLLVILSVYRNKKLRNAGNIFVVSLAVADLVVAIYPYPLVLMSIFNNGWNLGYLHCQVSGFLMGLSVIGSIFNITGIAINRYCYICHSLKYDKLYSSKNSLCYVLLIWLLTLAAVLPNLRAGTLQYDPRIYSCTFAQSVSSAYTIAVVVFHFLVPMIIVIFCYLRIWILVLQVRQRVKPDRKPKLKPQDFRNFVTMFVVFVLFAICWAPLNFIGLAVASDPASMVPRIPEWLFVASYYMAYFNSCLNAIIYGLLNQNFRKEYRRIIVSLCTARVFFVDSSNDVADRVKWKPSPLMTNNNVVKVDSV
# Protocol: (§2) The expression vectors for human MT1 and MT2 receptors were introduced into HEK293 cells, together with a Gq/i chimeric G protein expression vector, respectively. The incorporation was carried out in accordance with instructions, using a Lipofectoamine (registered trademark) 2000 Reagent (Invitrogen Inc.). Using Zeocin and hygromycin as a resistant agent, the cells were cultured for 15 days in the presence of 0.02 mg/mL and 0.05 mg/mL of the agents, respectively, thereby acquiring a drug-resistant clone.
# (§3) The respective stably expressing cells were dispensed into 96 wells in a poly-D-lysine-coated plate (Falcon) the day before the experiment to give 40,000 cells/well, and cultured in a DMEM (Invitrogen Inc.) medium containing 10% FBS at 37° C. and 5% CO2 overnight. The medium was replaced with a loading buffer (a washing solution containing 4 μM Fluo-4AM (Dojindo Co.) (Hank's balanced salt solution (HBSS), 20 mM HEPES-NaOH, 2.5 mM probenecid)) and cultured at 37° C. and 5% CO2 for 1 hour.
# human MT2 receptor = biological target: T2, human MT2 receptor (Homo sapiens, UniProt P49286); assay: Intracellular Ca2+ concentration by FLIPR in human MT2 receptor expressing cells (Example 2); assay type: cell-based; conditions: human MT2 receptor expressing HEK293 cells, 10^-5 M to 10^-12 M, FIGS. 3 and 5
# T2 construct: expressed in transfected cells; vector pCDNA3.1/Zeo; co-transfected with a Gq/i chimeric G protein expression vector
# T2 sequence (P49286 1-362): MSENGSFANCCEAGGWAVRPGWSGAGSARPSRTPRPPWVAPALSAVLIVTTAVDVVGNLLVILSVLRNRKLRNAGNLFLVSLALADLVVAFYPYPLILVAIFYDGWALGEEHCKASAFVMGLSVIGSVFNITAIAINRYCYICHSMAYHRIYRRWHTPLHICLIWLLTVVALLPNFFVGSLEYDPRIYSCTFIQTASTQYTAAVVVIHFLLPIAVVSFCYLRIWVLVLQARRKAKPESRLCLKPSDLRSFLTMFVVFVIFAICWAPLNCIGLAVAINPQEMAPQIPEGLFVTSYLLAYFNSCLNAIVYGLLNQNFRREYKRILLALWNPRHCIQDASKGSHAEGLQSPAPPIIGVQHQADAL
# Protocol: as §2, §3
SMILES,contraction action on the isolated bladder (isolated bladder),urethra contracting action (isolated urethra),effect on blood pressure (mean blood pressure) (SD female rat [1]),urethral pressure increasing action (SD female rat [2]),contraction action on the isolated uterus (isolated uterus),urethral pressure increasing action (SD female rat [3]),intracellular Ca^2+ concentration (melatonin receptor activating action) (human MT1 receptor),intracellular Ca^2+ concentration (melatonin receptor activating action) (human MT2 receptor),effect on the rhythmic contraction of the isolated uterus (isolated uterus; FIG. 20)
COc1ccc2[nH]cc(CCNC(C)=O)c2c1 [melatonin],did not exhibit a contraction action,contracted the isolated urethra,did not increase the blood pressure,increased the urethral pressure,did not exhibit a contraction action,increased the urethral pressure,,,
"CCC(=O)NCC[C@@H]1CCc2ccc3c(c21)CCO3 [ramelteon, (S)-N-[2-(1,6,7,8-tetrahydro-2H-indeno[5,4-b]furan-8-yl)ethyl]propionamide]",did not exhibit a contraction action,contracted the isolated urethra,did not increase the blood pressure,increased the urethral pressure,did not exhibit a contraction action,increased the urethral pressure,increased,increased,did not have an effect
